Laboratory results from ChEMBL document CHEMBL1201862, “PubChem BioAssay data set” (2004).
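Briefly, cells in 96-well plates were exposed to five compound concentrations for 48 h, and endpoints were estimated by linear interpolation. At the GI50, growth is halved.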 Active and inactive are the calls of the source. Cut-off read from the data, not from the text of the source: active = GI50 up to about 1.1 µM and inactive = higher.

How the values were obtained:
Test in all cases: growth of human tumour cells (NCI), 48 h
OVCAR-8 = system: OVCAR-8
SK-OV-3 = system: SK-OV-3
NCI-H522 = system: NCI-H522
EKVX = system: EKVX
XF498 = system: XF498
A498 = system: A498
HL-60 = system: HL-60
IGROV-1 = system: IGROV-1
SK-MEL-28 = system: SK-MEL-28
SNB-75 = system: SNB-75
SK-MEL-5 = system: SK-MEL-5
SK-MEL-2 = system: SK-MEL-2
M19-MEL = system: M19-MEL
K562 = system: K562
DMS-273 = system: DMS-273
M14 = system: M14
NCI-H460 = system: NCI-H460
OVCAR-5 = system: OVCAR-5
DMS-114 = system: DMS-114
SW-620 = system: SW-620
A549 = system: A549
UACC-62 = system: UACC-62
ACHN = system: ACHN
NCI-H23 = system: NCI-H23
HOP-92 = system: HOP-92
HOP-62 = system: HOP-62
UACC-257 = system: UACC-257
MOLT-4 = system: MOLT-4
SF-539 = system: SF-539
U-251 = system: U-251
KM12 = system: KM12
TK-10 = system: TK-10
SF-268 = system: SF-268
HT-29 = system: HT-29
RPMI-8226 = system: RPMI-8226
SF-295 = system: SF-295
SNB-19 = system: SNB-19
OVCAR-4 = system: OVCAR-4
COLO 205 = system: COLO 205
DLD-1 = system: DLD-1
UO-31 = system: UO-31
SN12C = system: SN12C
CCRF-CEM = system: CCRF-CEM
LXFL 529 = system: LXFL 529
SR = system: SR
SNB-78 = system: SNB-78
HCT-116 = system: HCT-116
CAKI-1 = system: CAKI-1
HCC 2998 = system: HCC 2998
LOX IMVI = system: LOX IMVI
HCT-15 = system: HCT-15
KM-20L2 = system: KM-20L2
786-0 = system: 786-0
OVCAR-3 = system: OVCAR-3
HOP-18 = system: HOP-18
Malme-3M = system: Malme-3M
NCI-H226 = system: NCI-H226
RXF 393 = system: RXF 393

O=C(Nc1nc2ccc([N+](=O)[O-])cc2s1)C(=O)C(C(=O)c1ccccc1F)C1OC(=O)c2ccccc21 (centres undefined)
GI50 (OVCAR-8): 47.9 µM (inactive)
GI50 (SK-OV-3): 29 µM (inactive)
GI50 (NCI-H522): 17.4 µM (inactive)
GI50 (EKVX): 22.1 µM (inactive)
GI50 (XF498): 48.3 µM (inactive)
GI50 (A498): 42.8 µM (inactive)
GI50 (HL-60): 20.3 µM (inactive)
GI50 (IGROV-1): 75.5 µM (inactive)
GI50 (SK-MEL-28): 32.1 µM (inactive)
GI50 (SNB-75): 30.9 µM (inactive)
GI50 (SK-MEL-5): 71.9 µM (inactive)
GI50 (SK-MEL-2): 20.4 µM (inactive)
GI50 (M19-MEL): 31 µM (inactive)
GI50 (K562): 29.9 µM (inactive)
GI50 (DMS-273): 33.7 µM (inactive)
GI50 (M14): 56.2 µM (inactive)
GI50 (NCI-H460): 40.5 µM (inactive)
GI50 (OVCAR-5): 71 µM (inactive)
GI50 (DMS-114): 25.1 µM (inactive)
GI50 (SW-620): 41.3 µM (inactive)
GI50 (A549): 57 µM (inactive)
GI50 (UACC-62): 29.6 µM (inactive)
GI50 (ACHN): 59.4 µM (inactive)
GI50 (NCI-H23): 67.1 µM (inactive)
GI50 (HOP-92): > 100 µM (inactive)
GI50 (HOP-62): 62.2 µM (inactive)
GI50 (UACC-257): 92.5 µM (inactive)
GI50 (MOLT-4): 17.7 µM (inactive)
GI50 (SF-539): 21.3 µM (inactive)
GI50 (U-251): 16.9 µM (inactive)
GI50 (KM12): 55.1 µM (inactive)
GI50 (TK-10): 87.1 µM (inactive)
GI50 (SF-268): 34.2 µM (inactive)
GI50 (HT-29): 40 µM (inactive)
GI50 (RPMI-8226): 16.4 µM (inactive)
GI50 (SF-295): 56 µM (inactive)
GI50 (SNB-19): 28.6 µM (inactive)
GI50 (OVCAR-4): 46.8 µM (inactive)
GI50 (COLO 205): 21.3 µM (inactive)
GI50 (DLD-1): 41 µM (inactive)
GI50 (UO-31): 38 µM (inactive)
GI50 (SN12C): 40.5 µM (inactive)
GI50 (CCRF-CEM): 17.3 µM (inactive)
GI50 (LXFL 529): 34 µM (inactive)
GI50 (SR): 16.8 µM (inactive)
GI50 (SNB-78): 25.1 µM (inactive)
GI50 (HCT-116): 37.1 µM (inactive)
GI50 (CAKI-1): 41.4 µM (inactive)
GI50 (HCC 2998): 24.9 µM (inactive)
GI50 (LOX IMVI): 27 µM (inactive)
GI50 (HCT-15): 31.2 µM
GI50 (KM-20L2): 49.4 µM (inactive)

Cn1ncc2c(c1=O)Nc1ccccc1S2(=O)=O
GI50 (OVCAR-8): > 100 µM (inactive)
GI50 (SK-OV-3): > 100 µM (inactive)
GI50 (NCI-H522): > 100 µM (inactive)
GI50 (EKVX): > 100 µM (inactive)
GI50 (A498): > 100 µM (inactive)
GI50 (786-0): 28.4 µM (inactive)
GI50 (IGROV-1): > 100 µM (inactive)
GI50 (SK-MEL-28): > 100 µM (inactive)
GI50 (SNB-75): > 100 µM (inactive)
GI50 (SK-MEL-5): > 100 µM (inactive)
GI50 (SK-MEL-2): > 100 µM (inactive)
GI50 (M19-MEL): > 100 µM (inactive)
GI50 (K562): > 100 µM (inactive)
GI50 (DMS-273): > 100 µM (inactive)
GI50 (M14): > 100 µM (inactive)
GI50 (NCI-H460): > 100 µM (inactive)
GI50 (OVCAR-5): > 100 µM (inactive)
GI50 (OVCAR-3): > 100 µM (inactive)
GI50 (DMS-114): 22 µM (inactive)
GI50 (SW-620): 10.8 µM (inactive)
GI50 (A549): > 100 µM (inactive)
GI50 (HOP-18): > 100 µM (inactive)
GI50 (Malme-3M): > 100 µM (inactive)
GI50 (UACC-62): > 100 µM (inactive)
GI50 (ACHN): > 100 µM (inactive)
GI50 (NCI-H23): > 100 µM (inactive)
GI50 (HOP-92): > 100 µM (inactive)
GI50 (HOP-62): > 100 µM (inactive)
GI50 (UACC-257): > 100 µM (inactive)
GI50 (MOLT-4): > 100 µM (inactive)
GI50 (SF-539): 21.6 µM (inactive)
GI50 (U-251): 34.6 µM (inactive)
GI50 (KM12): > 100 µM (inactive)
GI50 (TK-10): > 100 µM (inactive)
GI50 (NCI-H226): > 100 µM (inactive)
GI50 (SF-268): > 100 µM (inactive)
GI50 (HT-29): > 100 µM (inactive)
GI50 (RPMI-8226): 53.8 µM (inactive)
GI50 (SF-295): > 100 µM (inactive)
GI50 (SNB-19): > 100 µM (inactive)
GI50 (OVCAR-4): > 100 µM (inactive)
GI50 (COLO 205): 54.7 µM (inactive)
GI50 (DLD-1): > 100 µM (inactive)
GI50 (UO-31): > 100 µM (inactive)
GI50 (SN12C): > 100 µM (inactive)
GI50 (CCRF-CEM): 61.1 µM (inactive)
GI50 (LXFL 529): 80.4 µM (inactive)
GI50 (SR): 51.3 µM (inactive)
GI50 (SNB-78): > 100 µM (inactive)
GI50 (HCT-116): 50 µM (inactive)
GI50 (CAKI-1): > 100 µM (inactive)
GI50 (HCC 2998): > 100 µM (inactive)
GI50 (LOX IMVI): > 100 µM (inactive)
GI50 (HCT-15): > 100 µM
GI50 (KM-20L2): > 100 µM (inactive)

COc1cc(C2c3cc4c(cc3[C@@H](NCCN3CCOCC3)C3COC(=O)[C@H]23)OCO4)cc(OC)c1O (some centres undefined)
GI50 (OVCAR-8): 2.18 µM (inactive)
GI50 (NCI-H522): 2.51 µM (inactive)
GI50 (EKVX): 14.2 µM (inactive)
GI50 (786-0): 1.19 µM (inactive)
GI50 (IGROV-1): 8.11 µM (inactive)
GI50 (SK-MEL-28): 3.71 µM (inactive)
GI50 (SK-MEL-2): 4.17 µM (inactive)
GI50 (RXF 393): 2.3 µM (inactive)
GI50 (K562): 5.56 µM (inactive)
GI50 (DMS-273): 0.437 µM (active)
GI50 (M14): 2.57 µM (inactive)
GI50 (OVCAR-3): 8.02 µM (inactive)
GI50 (SW-620): 1.23 µM (inactive)
GI50 (HOP-18): 2.81 µM (inactive)
GI50 (Malme-3M): 2.31 µM (inactive)
GI50 (UACC-62): 1.21 µM (inactive)
GI50 (HOP-92): 1.04 µM (active)
GI50 (HOP-62): 0.541 µM (active)
GI50 (UACC-257): 3.23 µM (inactive)
GI50 (SF-539): 0.836 µM (active)
GI50 (U-251): 0.906 µM (active)
GI50 (KM12): 2.42 µM (inactive)
GI50 (TK-10): 7.85 µM (inactive)
GI50 (SF-268): 1.56 µM (inactive)
GI50 (HT-29): 4.65 µM (inactive)
GI50 (SF-295): 1.35 µM (inactive)
GI50 (SNB-19): 2.51 µM (inactive)
GI50 (OVCAR-4): 17.8 µM (inactive)
GI50 (DLD-1): 6.18 µM (inactive)
GI50 (UO-31): 1.77 µM (inactive)
GI50 (LXFL 529): 11.3 µM (inactive)
GI50 (SNB-78): 16.5 µM (inactive)
GI50 (HCT-116): 3.01 µM (inactive)
GI50 (CAKI-1): 1.97 µM (inactive)
GI50 (HCC 2998): 1.97 µM (inactive)
GI50 (LOX IMVI): 0.962 µM (active)
GI50 (HCT-15): 1.65 µM
GI50 (KM-20L2): 2.96 µM (inactive)

CC(=O)/C=C1/c2ccccc2N(C(C)=O)C1O (centres undefined)
GI50 (OVCAR-8): > 100 µM (inactive)
GI50 (SK-OV-3): > 100 µM (inactive)
GI50 (EKVX): > 100 µM (inactive)
GI50 (A498): > 100 µM (inactive)
GI50 (HL-60): > 100 µM (inactive)
GI50 (786-0): > 100 µM (inactive)
GI50 (IGROV-1): > 100 µM (inactive)
GI50 (SK-MEL-28): > 100 µM (inactive)
GI50 (SNB-75): > 100 µM (inactive)
GI50 (SK-MEL-2): > 100 µM (inactive)
GI50 (RXF 393): > 100 µM (inactive)
GI50 (M19-MEL): > 100 µM (inactive)
GI50 (K562): > 100 µM (inactive)
GI50 (DMS-273): > 100 µM (inactive)
GI50 (M14): > 100 µM (inactive)
GI50 (NCI-H460): > 100 µM (inactive)
GI50 (OVCAR-3): > 100 µM (inactive)
GI50 (DMS-114): > 100 µM (inactive)
GI50 (SW-620): > 100 µM (inactive)
GI50 (A549): > 100 µM (inactive)
GI50 (HOP-18): > 100 µM (inactive)
GI50 (UACC-62): > 100 µM (inactive)
GI50 (ACHN): > 100 µM (inactive)
GI50 (NCI-H23): > 100 µM (inactive)
GI50 (HOP-92): > 100 µM (inactive)
GI50 (HOP-62): > 100 µM (inactive)
GI50 (UACC-257): > 100 µM (inactive)
GI50 (MOLT-4): > 100 µM (inactive)
GI50 (SF-539): > 100 µM (inactive)
GI50 (U-251): > 100 µM (inactive)
GI50 (KM12): > 100 µM (inactive)
GI50 (HT-29): > 100 µM (inactive)
GI50 (RPMI-8226): > 100 µM (inactive)
GI50 (SF-295): > 100 µM (inactive)
GI50 (SNB-19): > 100 µM (inactive)
GI50 (OVCAR-4): > 100 µM (inactive)
GI50 (COLO 205): > 100 µM (inactive)
GI50 (DLD-1): > 100 µM (inactive)
GI50 (UO-31): > 100 µM (inactive)
GI50 (SN12C): > 100 µM (inactive)
GI50 (CCRF-CEM): > 100 µM (inactive)
GI50 (LXFL 529): > 100 µM (inactive)
GI50 (SR): > 100 µM (inactive)
GI50 (SNB-78): > 100 µM (inactive)
GI50 (HCT-116): > 100 µM (inactive)
GI50 (CAKI-1): > 100 µM (inactive)
GI50 (HCC 2998): > 100 µM (inactive)
GI50 (HCT-15): > 100 µM
GI50 (KM-20L2): > 100 µM (inactive)
